Drawing on PubChem BioAssay (NCI), this text covers TGI and GI50 for 32 compounds.

SMILES strings stand for the structures.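 Five concentrations, 48 hours, 96-well plates. GI50: concentration for 50% inhibition of growth. TGI marks complete inhibition of growth.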

Test systems include M19-MEL melanoma; KM20L2 colon; DMS 273 small cell lung; T-47D breast; XF 498 CNS; DLD-1 colon; RXF-631 renal; MDA-N.
Common to all, as to assay: growth of human tumour cells (NCI), 48 h

With `CCCCCCCC(=O)OCC1OC(n2cc(F)c(=O)[nH]c2=O)C(N)C(OC(=O)CCCCCCC)C1O` (stereo not drawn), the TGI in the assay on M19-MEL melanoma was found to be 36 µM; with KM20L2 colon it was 33.7 µM; in the assay on DMS 273 small cell lung it was 30.8 µM.
In the case of `C[C@H](CCOc1cccc(CC(=O)O)c1)N(Cc1cccc(C(F)(F)F)c1Cl)CC(c1ccccc1)c1ccccc1`, in the assay on T-47D breast, the GI50 was 4.47 µM and the TGI was found to be 33.6 µM.
For `CCOC(=O)c1c(C)c2c(n1Cc1ccccc1)CSCC2=O` the same measures were 7.04 µM and 45.3 µM.
For `COc1cc(OC)c(OC)cc1/C=N/NC(=O)N/N=C/c1cc(OC)c(OC)cc1OC`, the TGI in the assay with M19-MEL melanoma, in the assay on KM20L2 colon, in the assay on DMS 273 small cell lung and in the assay on XF 498 CNS was over 100 µM throughout.
On to `COc1cc2c(cc1OCCCN1CCN(CCCOc3cc4c(cc3OC)C(=O)N3CC(F)(F)C[C@H]3C=N4)CC1)N=C[C@@H]1CC(F)(F)CN1C2=O`, for which, in the assay on T-47D breast, the GI50 was 3.25 µM and the TGI was found to be 36.9 µM.
As to `O=C1C/C(Br)=C\c2ccccc2-c2ccccc21`, the TGI in the assay with M19-MEL melanoma was determined as 4.65 µM; with KM20L2 colon, 8.28 µM; in the assay with DLD-1 colon it was 2.92 µM; in the assay on DMS 273 small cell lung it was 7.65 µM; with XF 498 CNS, 3.7 µM.
Regarding `O/N=C1\CCCCC1C(NO)c1ccccc1` (stereo not drawn), the TGI in the assay on M19-MEL melanoma, in the assay with KM20L2 colon, in the assay on DLD-1 colon, with DMS 273 small cell lung and in the assay with RXF-631 renal was over 100 µM in each case.
As for `CCC(C)(C)n1c(C)nc2c1C(=O)c1ccccc1C2=O`, the TGI in the assay with M19-MEL melanoma was 31.7 µM; with KM20L2 colon, over 100 µM; in the assay on DLD-1 colon, over 100 µM; with DMS 273 small cell lung, 44.6 µM; in the assay on XF 498 CNS it was 46.7 µM.
As for `CCSc1nc(N=Cc2ccccc2O)c2cn[nH]c2n1`, in the assay with T-47D breast, the GI50 was 33.4 µM and the TGI is over 100 µM.
With `C[N+](C)(C)CC(=O)N/N=C(/Cc1cc(=O)oc2cc(O)ccc12)C(=O)Nc1ccc(Cl)cc1`, the TGI with M19-MEL melanoma, in the assay on KM20L2 colon, with DLD-1 colon and in the assay on RXF-631 renal was over 100 µM throughout.
With `NNc1ncnc2nc[nH]c12`, in the assay with T-47D breast, the GI50 is 3.67 µM and the TGI was over 100 µM.
In the case of `COc1ccc(NC(=O)CSc2nnc(-c3ccc(NC(C)=O)cc3)o2)cc1`, the TGI worked out at 55.7 µM with M19-MEL melanoma, 36.8 µM with KM20L2 colon, 41 µM with DLD-1 colon and 33.7 µM with DMS 273 small cell lung.
Take `CCCCCCCCSC1=C(Cl)C(=O)C(OC)=C(OC)C1=O`: the TGI in the assay with T-47D breast worked out at 36.2 µM; in the assay with MDA-N, 17.6 µM.
With `C=CC12CCN(CC1)C(C(O)c1ccnc3ccc(OC)cc13)C2` (stereo not drawn), in the assay on T-47D breast, the GI50 was over 100 µM and the TGI is over 100 µM.
In the case of `O=c1[nH]c(O)c(C=Nc2ccc(-c3nc4ccccc4o3)cc2)c(=O)[nH]1`, in the assay with T-47D breast, the GI50 is 93.7 µM and the TGI was over 100 µM.
For `O=c1[nH]c(-c2cccc(F)c2)cc2cc(F)ccc12`, in the assay on T-47D breast, the GI50 is over 100 µM and the TGI is over 100 µM.
As for `O=c1cccc(C#CC#C[C@@H]2O[C@H]2CO)o1`, in the assay on T-47D breast, the GI50 was 1.33 µM and the TGI worked out at 3.32 µM.
For `C=C(CN(C)Cc1ccccc1)c1ccc(NC(=O)c2ccc(C(=C)CN(C)Cc3ccccc3)cc2)cc1` the same measures were 20.7 µM and 87.4 µM.
Regarding `O=Cc1cc2c(cc1-c1cc3c(cc1C=O)OCO3)OCO2`, the TGI in the assay with M19-MEL melanoma, with KM20L2 colon, with DLD-1 colon and in the assay on DMS 273 small cell lung was over 100 µM throughout.
As for `CNc1nc(N)nc(Nc2ccc(I)cc2)c1N=O`, the TGI with MDA-N is over 100 µM.
As to `N#CC(I)CS(=O)(=O)c1ccccc1` (stereo not drawn), in the assay with T-47D breast, the GI50 is 18.4 µM and the TGI worked out at 42.6 µM.
For `COc1ccc(-c2cc(=O)oc3c4c(ccc23)OCN(Cc2ccc(F)cc2)C4)cc1` the same measures were 13.5 µM and 43.8 µM.
In the case of `CC(=O)N/C(=C\c1ccccc1/C=C(\NC(C)=O)c1nc2cc(C)c(C)cc2[nH]1)c1nc2cc(C)c(C)cc2[nH]1`, the TGI is 85.8 µM with M19-MEL melanoma; over 100 µM in the assay on KM20L2 colon; 56.5 µM with DLD-1 colon; 47.6 µM with DMS 273 small cell lung; 32.9 µM with XF 498 CNS.
Consider `O=C1C=C(c2c(O)ccc3ccccc23)c2cc(O)ccc2C1=O`, for which the TGI worked out at 9.68 µM with M19-MEL melanoma; 38.7 µM with KM20L2 colon; 37.6 µM with DLD-1 colon; 30.8 µM with DMS 273 small cell lung; 23.3 µM in the assay with XF 498 CNS.
For the compound `NC(=O)c1cc(I)ccc1NC(=O)/C=C/c1ccccc1`, in the assay with T-47D breast, the GI50 is 0.597 µM and the TGI was over 65.7 µM.
For the compound `COc1c(C)c(OCC=C(C)C)cc(CO)c1CO`, the TGI in the assay with T-47D breast and in the assay with MDA-N was over 100 µM in each case.
In the case of `C/C(=N\NC(N)=O)c1sc(-c2nc(C)c(/C(C)=N/NC(N)=O)s2)nc1C`, the TGI was over 100 µM with M19-MEL melanoma; over 100 µM in the assay with KM20L2 colon; over 100 µM in the assay on DLD-1 colon; 49.6 µM in the assay on DMS 273 small cell lung; over 100 µM with XF 498 CNS.
Regarding `CNc1cc2oc(=O)cc(C)c2cc1C`, the TGI with T-47D breast and with MDA-N was over 100 µM in each case.
On to `COc1ccc(Cl)cc1NC(=O)c1ccc(NC2=C(Cl)C(=O)N(Cc3ccccc3)C2=O)cc1`, for which, in the assay with T-47D breast, the GI50 is over 100 µM and the TGI is over 100 µM.
With `O=C(Nc1nc(-c2c[nH]c3ccccc23)cs1)c1n[nH]c(=O)c2ccccc12`, in the assay on T-47D breast, the GI50 was over 46.4 µM and the TGI was over 96.2 µM.
Regarding `Cc1nc2c(N)ncnc2o1`, the TGI in the assay on M19-MEL melanoma, with KM20L2 colon, in the assay on DLD-1 colon, with DMS 273 small cell lung and with RXF-631 renal was over 100 µM each time.
With `CNCCCNc1ccnc2cc(Cl)ccc12`, in the assay on T-47D breast, the GI50 was 25.7 µM and the TGI was over 100 µM.
